Data as given in article PMC7211195 (Investigational New Drugs, 2019).
Values joined by “and” are separate entries in the source; they are usually repeats but may differ in a detail not shown here. Equal entries are not always repeated. Where two headings read alike, the source gives them in different places.

Experiment: Lapatinib pharmacokinetics and uptake in rat brain tissue (BT);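 on BT corr (BT homogenate corrected), single rat: brain concentration corrected for residual brain blood by the Fridén method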;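 on BT corr (BT homogenate), single rat: brain concentration corrected for residual brain blood by the Fridén method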
Format: in vivo, rats
Procedure: This study was conducted on rats, which are a promising model to predict P-gp-based drug-drug interactions at the human BBB [15]. The animals were allowed to acclimate for one week before the beginning of the experiments. Adult male Wistar-strain rats (weight 470–525 g) were used in the study. The animals were maintained under standard breeding conditions with a 12/12 h light-dark cycle (lights on at 6.00 a.m., lights off at 6.00 p.m.) at constant room temperature (23 ± 2 °C), relative humidity (55 ± 10%) and ad libitum access to food and water. The experimental protocol for this study was reviewed and approved by the Local Ethics Committee. To obtain consistent data, the study was based on the required minimum number of animals and observation time. […] Three rats were used at each time point (n = 3). In total, the research was conducted on 66 animals (n = 33 in the experimental group and n = 33 in the control group).
Elacridar was freshly dissolved in a vehicle at an initial concentration of 20 mg/mL. […] A volume of 80 μL of blood was collected from each rat by cutting off a piece of its tail. The blood samples were collected into heparinized test tubes at the following time points: […], and they were immediately centrifuged at 2880 g for 10 min at 4 °C. The anaesthetized rats (anaesthetized by intramuscular administration of 50 mg/kg ketamine and 10 mg/kg xylazine) were prepared for cisterna magna puncture. The hair over the puncture was removed and the skin was disinfected with alcohol. The animals were placed in a recumbent position with an elevated rear part of the body. The animals’ heads were slightly flexed and immobilized with the operator’s left hand. The space between the occiput rostrally and the atlas (C1) of the spinal column caudally was gently palpated with the left thumb. A 0.7 × 20 G needle with polyethylene tubing (Terumo Poland, Warsaw, Poland) was gently inserted at an approximate angle of 80–90° through the skin with the operator’s right hand into the midsagittal region. The moment that dura mater perforation was perceptible, a small amount of CSF was found in the needle tubing. To sample additional CSF, a 1 mL insulin syringe (Becton Dickinson, Warsaw, Poland) was used to collect 80–120 μL of CSF by very gentle aspiration. Only clear CSF was collected for further analysis. […] The animals’ brains were immediately dissected, washed in 0.9% NaCl and divided along the longitudinal axis. One of the brain hemispheres was again rinsed three times with 5 mL of 0.9% NaCl, weighed and homogenized with 0.9% NaCl (4 mL per 1 g of BT) in an Ultra-Turrax homogenizer (Witko, Łódź, Poland). The homogenate was then centrifuged at 4500 g for 10 min. All samples of the rat BP, CSF, and BT homogenate supernatant were stored at −80 °C until analysis.
The chromatographic analysis was conducted using a 1260 Infinity system (Agilent Technologies, Santa Clara, USA) equipped with a Kinetex® C18 column (50 × 4.6 mm, 2.6 μm, Phenomenex, Torrance, USA), which was maintained at 35 °C. The mobile phase consisted of 0.1% formic acid (v/v) in water with 5 mM ammonium formate (solvent A) and acetonitrile with 10% phase A (v/v, solvent B). The analyte and internal standard (IS, erlotinib) were eluted using a gradient run of 10 min as follows: 95% A at 0–2 min; 95%–5% A at 2–4 min; 5% A at 4–5 min; 5%–95% A at 5–6 min; 95% A at 6–10 min. The flow rate and injection volume were set at 0.7 mL/min and 10 μL, respectively. The needle was washed for 30 s in a mixture of acetonitrile, methanol, isopropanol, water, and formic acid (50:20:15:15:0.25, v/v/v/v/v).

[1] = male, Wistar, rat, brain tissue homogenate, corrected for residual blood, po, 100 mg/kg, lapatinib p.o. 100 mg/kg alone, read-out: BT corr (BT homogenate corrected), S
[2] = male, Wistar, rat, brain tissue homogenate, corrected for residual blood, po, 100 mg/kg, lapatinib p.o. 100 mg/kg alone, read-out: BT corr (BT homogenate corrected), single rat
[3] = male, Wistar, rat, brain tissue homogenate, oral, lapatinib 100 mg/kg + elacridar, read-out: BT corr (BT homogenate), S
[4] = male, Wistar, rat, brain tissue homogenate, oral, lapatinib 100 mg/kg + elacridar, read-out: BT corr (BT homogenate), single rat

BT corr (BT homogenate corrected), single rat (lapatinib p.o. 100 mg/kg alone, 1 h, 100 mg/kg): 62.82 ng/mL
BT corr (BT homogenate corrected), single rat (lapatinib p.o. 100 mg/kg alone, 1 h, listed as Lapatinib, 100 mg/kg): 62.82 ng/mL
BT corr (BT homogenate corrected), single rat (lapatinib p.o. 100 mg/kg alone, 4 h, 100 mg/kg): 135.24 ng/mL
BT corr (BT homogenate corrected), single rat (lapatinib p.o. 100 mg/kg alone, 4 h, listed as Lapatinib, 100 mg/kg): 135.24 ng/mL
BT corr (BT homogenate corrected), single rat (lapatinib p.o. 100 mg/kg alone, 6 h, 100 mg/kg): 116.18 ng/mL and 47.54 ng/mL
BT corr (BT homogenate corrected), single rat (lapatinib p.o. 100 mg/kg alone, 6 h, listed as Lapatinib, 100 mg/kg): 116.18 ng/mL and 47.54 ng/mL
BT corr (BT homogenate corrected), single rat (lapatinib p.o. 100 mg/kg alone, 8 h, 100 mg/kg): 44.94 ng/mL
BT corr (BT homogenate corrected), single rat (lapatinib p.o. 100 mg/kg alone, 8 h, listed as Lapatinib, 100 mg/kg): 44.94 ng/mL
BT corr (BT homogenate corrected), single rat (lapatinib p.o. 100 mg/kg alone, 12 h, 100 mg/kg): 10.91 ng/mL
BT corr (BT homogenate corrected), single rat (lapatinib p.o. 100 mg/kg alone, 12 h, listed as Lapatinib, 100 mg/kg): 10.91 ng/mL
Kp (male, Wistar, rat, brain tissue (homogenate supernatant), po, 100 mg/kg, read-out: Kp (tissue-to-plasma partition coefficient, AUC0-∞-tissue/AUC0-∞-plasma)): 0.036
concentration at 4 h (male, Wistar, rat, brain tissue homogenate, corrected for residual blood, oral, lapatinib 100 mg/kg + elacridar, 4 h, read-out: BT corr (BT homogenate), single rat): 78.2 ng/mL
concentration at 6 h (male, Wistar, rat, brain tissue homogenate, corrected for residual blood, oral, lapatinib 100 mg/kg + elacridar, 6 h, read-out: BT corr (BT homogenate), single rat): 87.3 ng/mL
concentration at 8 h (male, Wistar, rat, brain tissue homogenate, corrected for residual blood, oral, lapatinib 100 mg/kg + elacridar, 8 h, read-out: BT corr (BT homogenate), single rat): 91.5 ng/mL
concentration at 12 h (male, Wistar, rat, brain tissue homogenate, corrected for residual blood, oral, lapatinib 100 mg/kg + elacridar, 12 h, read-out: BT corr (BT homogenate), single rat): 63.6 ng/mL
concentration at 24 h (male, Wistar, rat, brain tissue homogenate, corrected for residual blood, oral, lapatinib 100 mg/kg + elacridar, 24 h, read-out: BT corr (BT homogenate), single rat): 52.7 ng/mL
concentration at 0.25 h [1]: 27.9 ng/mL
concentration at 0.25 h [2]: 22.5 ng/mL
concentration at 0.5 h [1]: 31.5 ng/mL
concentration at 0.5 h [2]: 24 ng/mL
concentration at 1 h (male, Wistar, rat, brain tissue homogenate, corrected for residual blood, po, 100 mg/kg, lapatinib p.o. 100 mg/kg alone, 1 h, read-out: BT corr (BT homogenate corrected), S): 55.5 ng/mL
concentration at 1 h (male, Wistar, rat, brain tissue homogenate, corrected for residual blood, po, 100 mg/kg, lapatinib p.o. 100 mg/kg alone, 1 h, read-out: BT corr (BT homogenate corrected), single rat): 48.1 ng/mL
concentration at 2 h [1]: 41.4 ng/mL
concentration at 2 h [2]: 30.1 ng/mL
concentration at 3 h [1]: 111 ng/mL
concentration at 3 h [2]: 139 ng/mL
concentration at 4 h (male, Wistar, rat, brain tissue homogenate, corrected for residual blood, po, 100 mg/kg, lapatinib p.o. 100 mg/kg alone, 4 h, read-out: BT corr (BT homogenate corrected), S): 115 ng/mL
concentration at 4 h (male, Wistar, rat, brain tissue homogenate, corrected for residual blood, po, 100 mg/kg, lapatinib p.o. 100 mg/kg alone, 4 h, read-out: BT corr (BT homogenate corrected), single rat): 94.2 ng/mL
concentration at 6 h (male, Wistar, rat, brain tissue homogenate, corrected for residual blood, po, 100 mg/kg, lapatinib p.o. 100 mg/kg alone, 6 h, read-out: BT corr (BT homogenate corrected), S): 81.9 ng/mL
concentration at 8 h (male, Wistar, rat, brain tissue homogenate, corrected for residual blood, po, 100 mg/kg, lapatinib p.o. 100 mg/kg alone, 8 h, read-out: BT corr (BT homogenate corrected), S): 66.2 ng/mL
concentration at 8 h (male, Wistar, rat, brain tissue homogenate, corrected for residual blood, po, 100 mg/kg, lapatinib p.o. 100 mg/kg alone, 8 h, read-out: BT corr (BT homogenate corrected), single rat): 87.5 ng/mL
concentration at 12 h (male, Wistar, rat, brain tissue homogenate, corrected for residual blood, po, 100 mg/kg, lapatinib p.o. 100 mg/kg alone, 12 h, read-out: BT corr (BT homogenate corrected), S): 44.5 ng/mL
concentration at 0.25 h [3]: 33.1 ng/mL
concentration at 0.25 h [4]: 30.7 ng/mL
concentration at 0.5 h [3]: 43.6 ng/mL
concentration at 0.5 h [4]: 45.2 ng/mL
concentration at 1 h (male, Wistar, rat, brain tissue homogenate, oral, lapatinib 100 mg/kg + elacridar, 1 h, read-out: BT corr (BT homogenate), S): 79.1 ng/mL
concentration at 1 h (male, Wistar, rat, brain tissue homogenate, oral, lapatinib 100 mg/kg + elacridar, 1 h, read-out: BT corr (BT homogenate), single rat): 74.9 ng/mL
SMILES: CS(=O)(=O)CCNCc1ccc(-c2ccc3ncnc(Nc4ccc(OCc5cccc(F)c5)c(Cl)c4)c3c2)o1 [lapatinib, N-{3-Chloro-4-[(3-fluorobenzyl)oxy]phenyl}-6-[5-({[2-(methylsulfonyl)ethyl]amino}methyl)-2-furyl]-4-quinazolinamine]
